Assay results: patent publication US10800772B2 (Gilead Sciences, Inc., priority 2016, dated 2020)

Assays:
Format in all cases: cell-based, HIV-1
[1] = test system: HIV-IIIb (wildtype); test: Antiviral assay in MT4 cells, HIV-IIIb wildtype; settings: Human immunodeficiency virus 1, IIIB, MT4, 120 h, read-out: WT EC50
How it was run: (§1)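 Luminescence from CellTiter-Glo after a 5-day culture served as the measure of HIV-1 replication in MT4 cells. Cells were infected beforehand for 3 h with HIV-IIIb (0.004 m.o.i.) and exposed to ten 3-fold compound dilutions. EC50 corresponds to a 50% signal decrease.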

[2] = test system: HIV-IIIb IN T174I DE; test: Antiviral assay in MT4 cells, HIV-IIIb IN T174I DE virus (from dose escalation passaging); settings: Human immunodeficiency virus 1, IIIB, MT4, 120 h, read-out: T174I DE EC50, MT4 cells, HIV-IIIb IN T174I DE (dose escalation), 5 days, CellTiter-Glo
How it was run: as §1

[3] = test system: HIV-IIIb IN T174I BT; test: Antiviral assay in MT4 cells, HIV-IIIb IN T174I BT virus (from viral breakthrough); settings: Human immunodeficiency virus 1, IIIB, MT4, 120 h, read-out: T174I BT EC50, MT4 cells, HIV-IIIb IN T174I BT (viral breakthrough), 5 days, CellTiter-Glo
How it was run: as §1

Structure (SMILES)	EC50 [1] [µM]	EC50 [2] [µM]	EC50 [3] [µM]
Cc1cc2nc(-c3ccc4c(c3)c(N3CCC(C5COC5)CC3)nn4C)sc2c(-c2ccc(Cl)cc2)c1[C@H](OC(C)(C)C)C(=O)O [Compound 146, (S)-2-(tert-butoxy)-2-(7-(4-chloro-phenyl)-5-methyl-2-(1-methyl-3-(4-(oxetan-3-yl)piperidin-1-yl)-1H-indazol-5-yl)benzo[d]thiazol-6-yl)acetic acid]	0.031	2.21	1.75
CC(=O)N1CC[C@@H]1CN1CCC(c2nn(C)c3ccc(-c4nc5cc(C)c([C@H](OC(C)(C)C)C(=O)O)c(-c6ccc(Cl)cc6)c5s4)cc23)CC1 [Compound 148, (S)-2-(2-(3-(1-(((R)-1-acetyl-azetidin-2-yl)methyl)piperidin-4-yl)-1-methyl-1H-indazol-5-yl)-7-(4-chloro-phenyl)-5-methylbenzo[d]thiazol-6-yl)-2-(tert-butoxy) acetic acid]	0.012	0.199	0.143
Cc1cc2nc(-c3ccc4c(c3)c(C3CCN(C[C@@H]5CCN5C)CC3)nn4C)sc2c(-c2ccc(Cl)cc2)c1[C@H](OC(C)(C)C)C(=O)O [Compound 149, (S)-2-(tert-butoxy)-2-(7-(4-chloro-phenyl)-5-methyl-2-(1-methyl-3-(1-(((S)-1-methyl-azetidin-2-yl)methyl)piperidin-4-yl)-1H-indazol-5-yl)benzo[d]thiazol-6-yl) acetic acid]	0.011	0.098	0.08
COC(=O)N1CC[C@H]1CN1CCC(c2nn(C)c3ccc(-c4nc5cc(C)c([C@H](OC(C)(C)C)C(=O)O)c(-c6ccc(Cl)cc6)c5s4)cc23)CC1 [Compound 150, (S)-2-(tert-butoxy)-2-(7-(4-chloro-phenyl)-2-(3-(1-(((S)-1-(methoxy-carbonyl)azetidin-2-yl)methyl)piperidin-4-yl)-1-methyl-1H-indazol-5-yl)-5-methyl-benzo[d]thiazol-6-yl)acetic acid]	0.004	0.182	0.214
CC(=O)N1CC[C@H]1CN1CCC(c2nn(C)c3ccc(-c4nc5cc(C)c([C@H](OC(C)(C)C)C(=O)O)c(-c6ccc(Cl)cc6)c5s4)cc23)CC1 [Compound 151, (S)-2-(2-(3-(1-(((S)-1-acetyl-azetidin-2-yl)methyl)piperidin-4-yl)-1-methyl-1H-indazol-5-yl)-7-(4-chloro-phenyl)-5-methylbenzo[d]thiazol-6-yl)-2-(tert-butoxy) acetic acid]	0.016	0.231	0.237
Cc1cc2nc(-c3ccc4c(c3)c(C3CCN(C5CN(C(=O)C6CC6)C5)CC3)nn4C)sc2c(-c2ccc(Cl)cc2)c1[C@H](OC(C)(C)C)C(=O)O [Compound 152, (S)-2-(tert-butoxy)-2-(7-(4-chloro-phenyl)-2-(3-(1-(1-(cyclopropane-carbonyl)azetidin-3-yl)piperidin-4-yl)-1-methyl-1H-indazol-5-yl)-5-methylbenzo[d]thiazol-6-yl) acetic acid]	0.023	0.21	0.175
COC(=O)N1CC(N2CCC(c3nn(C)c4ccc(-c5nc6cc(C)c([C@H](OC(C)(C)C)C(=O)O)c(-c7ccc(Cl)cc7)c6s5)cc34)CC2)C1 [Compound 153, (S)-2-(tert-butoxy)-2-(7-(4-chloro-phenyl)-2-(3-(1-(1-(methoxycarbonyl)azetidin-3-yl)piperidin-4-yl)-1-methyl-1H-indazol-5-yl)-5-methyl-benzo[d]thiazol-6-yl)acetic acid]	0.011	0.217	0.159
Cc1cc2nc(-c3ccc4c(c3)c(C3CCN(C5CC(F)(F)C5)CC3)nn4C)sc2c(-c2ccc(Cl)cc2)c1[C@H](OC(C)(C)C)C(=O)O [Compound 155, (S)-2-(tert-butoxy)-2-(7-(4-chloro-phenyl)-2-(3-(1-(3,3-difluorocyclo-butyl)piperidin-4-yl)-1-methyl-1H-indazol-5-yl)-5-methylbenzo[d]thiazol-6-yl) acetic acid]	0.013	1.92	0.922
Cc1cc2nc(-c3ccc4c(c3)c(C3CCN(C(=O)[C@@H]5CCCO5)CC3)nn4C)sc2c(-c2ccc(Cl)cc2)c1[C@H](OC(C)(C)C)C(=O)O [Compound 157, (S)-2-(tert-butoxy)-2-(7-(4-chloro-phenyl)-5-methyl-2-(1-methyl-3-(1-((S)-tetrahydrofuran-2-carbonyl)piperidin-4-yl)-1H-indazol-5-yl)benzo[d]thiazol-6-yl)acetic acid]	0.011	0.789	0.62
Cc1cc2nc(-c3ccc4c(c3)c(C3CCN(C(=O)C5(C)CCCO5)CC3)nn4C)sc2c(-c2ccc(Cl)cc2)c1[C@H](OC(C)(C)C)C(=O)O (stereo partly drawn) [Compound 158, (2S)-2-(tert-butoxy)-2-(7-(4-chloro-phenyl)-5-methyl-2-(1-methyl-3-(1-(2-methyltetrahydro-furan-2-carbonyl)piperidin-4-yl)-1H-indazol-5-yl)benzo [d]thiazol-6-yl) acetic acid]	0.011	1.67	1.3
Cc1cc2nc(-c3ccc4c(c3)c(C3CCN(C(=O)C5CCO5)CC3)nn4C)sc2c(-c2ccc(Cl)cc2)c1[C@H](OC(C)(C)C)C(=O)O (stereo partly drawn) [Compound 159, (2S)-2-(tert-butoxy)-2-(7-(4-chloro-phenyl)-5-methyl-2-(1-methyl-3-(1-(oxetane-2-carbonyl)piperidin-4-yl)-1H-indazol-5-yl)benzo[d]thiazol-6-yl) acetic acid]	0.011	0.583	0.43
Cc1cc2nc(-c3ccc4c(c3)c(C3CCN(C(=O)C5(C)COC5)CC3)nn4C)sc2c(-c2ccc(Cl)cc2)c1[C@H](OC(C)(C)C)C(=O)O [Compound 160, (S)-2-(tert-butoxy)-2-(7-(4-chloro-phenyl)-5-methyl-2-(1-methyl-3-(1-(3-methyloxetane-3-carbonyl)piperidin-4-yl)-1H-indazol-5-yl)benzo[d]thiazol-6-yl)acetic acid]	0.015	0.756	0.375
Cc1cc2nc(-c3ccc4c(c3)c(C3CCN(C(=O)C5COC5)CC3)nn4C)sc2c(-c2ccc(Cl)cc2)c1[C@H](OC(C)(C)C)C(=O)O [Compound 161, (S)-2-(tert-butoxy)-2-(7-(4-chloro-phenyl)-5-methyl-2-(1-methyl-3-(1-(oxetane-3-carbonyl)piperidin-4-yl)-1H-indazol-5-yl)benzo[d]thiazol-6-yl)acetic acid]	0.018	0.6	0.316
COC(=O)N1CC[C@H](N2CCC(c3nn(C)c4ccc(-c5nc6cc(C)c([C@H](OC(C)(C)C)C(=O)O)c(-c7ccc(Cl)cc7)c6s5)cc34)CC2)C1 [Compound 162, (S)-2-(tert-butoxy)-2-(7-(4-chloro-phenyl)-2-(3-(1-((S)-1-(methoxy-carbonyl)pyrrolidin-3-yl)piperidin-4-yl)-1-methyl-1H-indazol-5-yl)-5-methylbenzo[d]thiazol-6-yl) acetic acid]	0.005	0.272	0.149
Cc1cc2nc(-c3ccc4c(c3)c(C3CCN([C@@H]5CCN(C)C5)CC3)nn4C)sc2c(-c2ccc(Cl)cc2)c1[C@H](OC(C)(C)C)C(=O)O [Compound 164, (S)-2-(tert-butoxy)-2-(7-(4-chloro-phenyl)-5-methyl-2-(1-methyl-3-(1-((R)-1-methyl-pyrrolidin-3-yl)piperidin-4-yl)-1H-indazol-5-yl)benzo[d]thiazol-6-yl)acetic acid]	0.015	0.183	0.184
COC(=O)N1CC[C@@H](N2CCC(c3nn(C)c4ccc(-c5nc6cc(C)c([C@H](OC(C)(C)C)C(=O)O)c(-c7ccc(Cl)cc7)c6s5)cc34)CC2)C1 [Compound 165, (S)-2-(tert-butoxy)-2-(7-(4-chloro-phenyl)-2-(3-(1-((R)-1-(methoxy-carbonyl)pyrrolidin-3-yl)piperidin-4-yl)-1-methyl-1H-indazol-5-yl)-5-methylbenzo[d]thiazol-6-yl) acetic acid]	0.005	0.182	0.118
COC(=O)N1CC(N2CCC(c3nn(C)c4ccc(-c5nc6cc(C)c([C@H](OC(C)(C)C)C(=O)O)c(-c7ccc(Cl)cc7)c6s5)nc34)CC2)C1 [Compound 167, (S)-2-(tert-butoxy)-2-(7-(4-chloro-phenyl)-2-(3-(1-(1-(methoxycarbonyl)azetidin-3-yl)piperidin-4-yl)-1-methyl-1H-pyrazolo[4,3-b]pyridin-5-yl)-5-methylbenzo[d]thiazol-6-yl) acetic acid]	0.003	0.138	0.057
Cc1cc2nc(-c3ccc4c(n3)c(C3CCN(C5CN(C(=O)OC(C)C)C5)CC3)nn4C)sc2c(-c2ccc(Cl)cc2)c1[C@H](OC(C)(C)C)C(=O)O [Compound 168, (S)-2-(tert-butoxy)-2-(7-(4-chloro-phenyl)-2-(3-(1-(1-(isopropoxy-carbonyl)azetidin-3-yl)piperidin-4-yl)-1-methyl-1H-pyrazolo[4,3-b]pyridin-5-yl)-5-methylbenzo[d]thiazol-6-yl) acetic acid]	0.011	0.456	0.23
Cc1cc2nc(-c3ccc4c(n3)c(C3CCN([C@@H]5CCN(C)C5)CC3)nn4C)sc2c(-c2ccc(Cl)cc2)c1[C@H](OC(C)(C)C)C(=O)O [Compound 171, (S)-2-(tert-butoxy)-2-(7-(4-chloro-phenyl)-5-methyl-2-(1-methyl-3-(1-((R)-1-methyl-pyrrolidin-3-yl)piperidin-4-yl)-1H-pyrazolo[4,3-b]pyridin-5-yl)benzo[d]thiazol-6-yl)acetic acid]	0.005	0.239	0.098
